The subject of series [1] is MC3T3-E1 cells. The experiment in a line: In-vitro bone nodules of osteoblasts (calcium accumulation). Type of series: cell-based. The note with it: 27 days; for activity at 5 µg/mL: Mus musculus, 648 h, compound 5 μg/ml, relative to negative control (100); for Calcium accumulation in the cells (in words): 5 μg/ml. Here is the method:
MC3T3-E1 cells (RIKEN Cell Bank, Japan) (2×10^3 cells per well) as an osteoblast cell line were placed on each well of a 24-well plate and then cultured for 24 hours. The medium was changed with α-MEM supplemented with β-glycerophosphate and ascorbic acid as a differentiation-inducing agent for osteoblasts. Each compound of Example 1 was added to the culture medium in the final concentration of 5 μg/ml. The plate containing the cells was cultured for 27 days while changing the medium every three days or every four days. […] No treatment was made to the negative control. In order to quantify the amount of calcium accumulated in the cells, the cells were washed with a biological saline, and then calcium (Ca) was extracted with a 0.5N HCl solution for 6 hours on an agitator. The extracted solution (100 μl) was reacted with a Calcium Reagent (Sigma, USA) at room temperature for 5 minutes. […] The amount of calcium accumulated in the cells was calculated by obtaining relative absorbance differences through comparing with a negative control (no treatment).

A short description of a further series: Cytotoxicity test (MTT). Particulars: mouse, L929 cells.
Series [2] has as its system MC3T3-E1 cells. The experiment in a line: Alkaline phosphatase (ALP) activity of osteoblasts. Type of series: cell-based. Particulars: 7 days; for activity at 5 µg/mL: Mus musculus, 168 h, compound 5 μg/ml, relative to negative control (100); for ALP activity (in words): 5 μg/ml. The procedure: After removing the medium, α-MEM supplemented with β-glycerophosphate and ascorbic acid were added thereto as a differentiation-inducing agent for osteoblasts. Each compound of Example 1 was added to the culture medium in the final concentration of 5 μg/ml. The plate containing the cells was cultured for 7 days. 100 μl of a cell lysis buffer (Sigma, Catalog number: MCL1) was added to the cells, which were then incubated at 37° C. for 30 minutes. The resulting mixture (50 μl) was reacted with p-nitrophenyl phosphate as a substrate in a 0.1N glycine-NaOH buffer (pH 9.8), at 37° C. for 30 minutes. Each amount of p-nitrophenol released from the substrate was quantified by measuring an absorbance at 405 nm using an ELISA reader (Bio-Tek instrument). […] The alkaline phosphatase activities were calculated by obtaining relative absorbance differences through comparing with a negative control (no treatment).

The test system of series [3] is mandiblar molars transplanted into the kidney of female mouse (C57BL/6). The experiment in a line: Alveolar bone formation activity, compound-soaked collagen bead in mandiblar molar transplanted into mouse kidney. Type of series: in vivo. Particulars: for response vs control in vivo at 1000 µg/mL: 504 h, collagen bead dipped in 1 mg/ml solution (1-2 μg compound), molar transplanted into mouse kidney, after 3 weeks, stained area vs negative control (100%); for Alveolar bone formation activity (in words): mouse kidney transplant of molar with compound bead, 3 weeks. Here is the method:
Each compound of Example 1 was dissolved in a sterile biological saline to obtain a solution having a concentration of 1 mg/ml. Collagen bead (diameter: 1×2 mm, Gibco) used as a bone-grafting material was dipped into each solution at 37° C. for 45 minutes. Each resulting wet bead includes about 1-2 μl of the solution, and therefore 1-2 μg of each compound. Mandiblar molars before tooth-root formation were isolated from mice. The wet bead was inserted in the center of dental pulp of each isolated mandiblar molar, using tweezers. The resulting mandiblar molars were transplanted into the kidney of female mouse (C57BL/6). After 3 weeks, the growing molar teeth were fixed with a formalin solution and then stained with a Morse's solution. The stained sites were visualized under a microscope (Olympus IX71) and then the area was measured with an imageWarp software (London, England). The effects of the compounds on alveolar bone formation were evaluated by comparing with the negative control (100%).

The nature of a further series: in vitro. The note with it: mouse.

≈ marks a conversion by molar mass, not a printed value.

Procedure for Cytotoxicity test (MTT): (§1) In order to evaluate the cytotoxicities of the compounds designed in Example 1, L929 cells (RIKEN Cell Bank, Japan) (1×10^4 cells per well) were placed on each well of a 96-well plate and then cultured for 12 hours. The cells were treated with each compound in predetermined concentrations and then cultured for 48 hours. After removing the medium, a MTT (3-(4,5-dimethylthiazol-2-yl)-2,5-diphenyltetrazolium bromide) solution (100 μl per well) was added to the cells, which were then incubated for 4 hours. After removing the supernatant, each well was treated with a DMSO solution (100 μl per well) and then incubated at room temperature for 10 minutes for extraction. An absorbance at 550 nm was measured with an ELISA reader (Bio-Tek instrument). The CC50 (Cytotoxic Concentration 50%) values were determined by comparing with a negative control (no treatment).
Procedure for in vitro: as §1

On to `COC(=O)c1ccc(O)cc1O` [NP34, methyl 2,4-dihydroxybenzoate], for which the activity at 5 µg/mL was determined as 158% with MC3T3-E1 cells [1] and 149% in the series on MC3T3-E1 cells [2]. This compound came in with a CC50 at 48 h in the series “Cytotoxicity test (MTT)” of 150 µg/mL (≈ 892 µM). In series [3], the response vs control in vivo at 1000 µg/mL is 130%.

In the case of `O=C(O)c1cc(O)ccc1O` [NP23, 2,5-dihydroxybenzoic acid], the activity at 5 µg/mL in the series with MC3T3-E1 cells [1] was 163%; in the series on MC3T3-E1 cells [2], 152%. In “Cytotoxicity test (MTT)”, the CC50 at 48 h came to 200 µg/mL (≈ 1300 µM). Further, the response vs control in vivo at 1000 µg/mL in series [3] amounted to 119%.

Turning to `CCOC(=O)c1cc(O)ccc1O` [NP35, ethyl 2,5-dihydroxybenzoate], in the series on MC3T3-E1 cells [1], the “Calcium accumulation in the cells (in words)” value is on record as “most excellent calcium accumulation in the cells” and the activity at 5 µg/mL is 580%. In the series “Cytotoxicity test (MTT)”, the CC50 at 48 h stood at 150 µg/mL (≈ 823 µM). Further, in the series with MC3T3-E1 cells [2], the “ALP activity (in words)” value is “most excellent ALP activities” and the activity at 5 µg/mL was 560%. Further, in series [3], the response vs control in vivo at 1000 µg/mL is 450% and the “Alveolar bone formation activity (in words)” value is listed as “most excellent alveolar bone formation activities”.

For `CCOC(=O)c1ccc(O)cc1O` [NP33, ethyl 2,4-dihydroxybenzoate], in the series on MC3T3-E1 cells [1], the “Calcium accumulation in the cells (in words)” value is on record as “most excellent calcium accumulation in the cells” and the activity at 5 µg/mL came out at 420%. Besides, the CC50 at 48 h in the series “Cytotoxicity test (MTT)” was determined as 100 µg/mL (≈ 549 µM). Besides, in the series with MC3T3-E1 cells [2], the “ALP activity (in words)” value is listed as “most excellent ALP activities” and the activity at 5 µg/mL was determined as 430%. Also, in series [3], the response vs control in vivo at 1000 µg/mL came to 300% and the “Alveolar bone formation activity (in words)” value is listed as “most excellent alveolar bone formation activities”.

With `O=C(O)c1cccc(O)c1O` [NP21, 2,3-dihydroxybenzoic acid], the values for the activity at 5 µg/mL in the series with MC3T3-E1 cells [1] and in the series with MC3T3-E1 cells [2] were 132% and 147%, respectively. This compound displayed a CC50 at 48 h in the series “Cytotoxicity test (MTT)” of 150 µg/mL (≈ 973 µM). Further, the response vs control in vivo at 1000 µg/mL in series [3] turned out to be 110%.

As for `CCOC(=O)c1c(O)cccc1O` [NP36, ethyl 2,6-dihydroxybenzoate], the activity at 5 µg/mL in the series with MC3T3-E1 cells [1] came to 160%; in the series with MC3T3-E1 cells [2] it was 157%. In addition, the CC50 at 48 h in the series “Cytotoxicity test (MTT)” came to 200 µg/mL (≈ 1100 µM). In series [3], this compound displayed a response vs control in vivo at 1000 µg/mL of 121%.

Take `O=C(O)c1ccc(O)cc1O` [NP22, 2,4-dihydroxybenzoic acid]: the values for the activity at 5 µg/mL with MC3T3-E1 cells [1] and in the series on MC3T3-E1 cells [2] were 159% and 153%, respectively. Further, the CC50 at 48 h in the series “in vitro” stood at 150 µg/mL (≈ 973 µM). In series [3], this compound returned a response vs control in vivo at 1000 µg/mL of 121%.

With `CCOC(=O)c1cc(O)cc(O)c1` [NP37, ethyl 3,5-dihydroxybenzoate], the activity at 5 µg/mL in the series with MC3T3-E1 cells [1] worked out at 159%; in the series with MC3T3-E1 cells [2], 153%. In the series “Cytotoxicity test (MTT)”, this compound showed a CC50 at 48 h of 150 µg/mL (≈ 823 µM). This compound also had a response vs control in vivo at 1000 µg/mL in series [3] of 122%.

Turning to `O=C(O)c1cc(O)cc(O)c1` [NP32, 3,5-dihydroxybenzoic acid], the activity at 5 µg/mL in the series on MC3T3-E1 cells [1] amounted to 163%; in the series with MC3T3-E1 cells [2] it was 155%. In “Cytotoxicity test (MTT)”, this compound registered a CC50 at 48 h of 150 µg/mL (≈ 973 µM). Besides, the response vs control in vivo at 1000 µg/mL in series [3] amounted to 123%.

On to `CCOC(=O)c1ccc(O)c(O)c1` [NP31, ethyl 3,4-dihydroxybenzoate], for which the values for the activity at 5 µg/mL with MC3T3-E1 cells [1] and in the series on MC3T3-E1 cells [2] were 180% and 200%, respectively. This compound gave a CC50 at 48 h in the series “Cytotoxicity test (MTT)” of 100 µg/mL (≈ 549 µM). Moreover, the response vs control in vivo at 1000 µg/mL in series [3] was found to be 150%.
